Laboratory results published in patent US4264774A, “2-Thiophenesulfonyl bromides” (The Dow Chemical Company, priority 1976, dated 1981).
≈ marks a conversion by molar mass, not a printed value.

Assays:
Format in all cases: cell-based
S. aureus [1] = experiment: in vitro agar Petri dish dilution test, Sa; conditions: Staphylococcus aureus, 100% inhibition
From the text: (§1) The compounds of this invention have antimicrobial utility. In conventional in vitro agar Petri dish dilution tests, the following compounds and some corresponding art compounds gave 100% inhibition of the following organisms at the indicated concentrations in parts per million.

M. phlei = experiment: in vitro agar Petri dish dilution test, Mp; conditions: Mycolicibacterium phlei, 100% inhibition
From the text: as §1

T. mentagrophytes = experiment: in vitro agar Petri dish dilution test, Tm; conditions: Trichophyton mentagrophytes, 100% inhibition
From the text: as §1
Tm = T. mentagrophytes -

B. subtilis [2] = experiment: in vitro agar Petri dish dilution test, Bs; conditions: Bacillus subtilis, 100% inhibition
From the text: as §1

T. Sp. Madison P42 = experiment: in vitro agar Petri dish dilution test, Tr 42; conditions: 100% inhibition
From the text: as §1
Tr 42 = T. Sp. Madison P42

C. pelliculosa [3] = experiment: in vitro agar Petri dish dilution test, Cp; conditions: Hansenula anomala, 100% inhibition
From the text: as §1

C. albicans = experiment: in vitro agar Petri dish dilution test, Ca; conditions: Candida albicans, 100% inhibition
From the text: as §1

P. pullulans = experiment: in vitro agar Petri dish dilution test, Pp; conditions: 100% inhibition
From the text: as §1

R. nigricans = experiment: in vitro agar Petri dish dilution test, Rn; conditions: Rhizopus stolonifer, 100% inhibition
From the text: as §1

[4] = system: Pseudomonas Sp. Strain 10; experiment: in vitro agar Petri dish dilution test, Ps 10; conditions: 100% inhibition
From the text: as §1
Ps 10 = Pseudomonas Sp. Strain 10

A. aerogenes = experiment: in vitro agar Petri dish dilution test, Aa; conditions: Klebsiella aerogenes, 100% inhibition
From the text: as §1

E. coli = experiment: in vitro agar Petri dish dilution test, Ec; conditions: Escherichia coli, 100% inhibition
From the text: as §1

A. niger = experiment: in vitro agar Petri dish dilution test, An; conditions: Aspergillus niger, 100% inhibition
From the text: as §1

S. typhosa = experiment: in vitro agar Petri dish dilution test, St; conditions: for MIC: 100% inhibition
From the text: as §1

C. IPS = experiment: in vitro agar Petri dish dilution test, CI; conditions: 100% inhibition
From the text: as §1

B. subtilis [5] = experiment: in vitro agar Petri dish dilution test, Bs; conditions: Bacillus subtilis
S. aureus [6] = experiment: in vitro agar Petri dish dilution test, Sa; conditions: Staphylococcus aureus
C. pelliculosa [7] = experiment: in vitro agar Petri dish dilution test, Cp; conditions: Hansenula anomala

Row | SMILES | MIC (S. aureus [1]) [µg/mL] | MIC (M. phlei) [µg/mL] | MIC (T. mentagrophytes) [µg/mL] | MIC (B. subtilis [2]) [µg/mL] | MIC (T. Sp. Madison P42) [µg/mL] | MIC (C. pelliculosa [3]) [µg/mL] | MIC (C. albicans) [µg/mL] | MIC (P. pullulans) [µg/mL] | MIC (R. nigricans) [µg/mL] | MIC [4] [µg/mL] | MIC (A. aerogenes) [µg/mL] | MIC (E. coli) [µg/mL] | MIC (A. niger) [µg/mL] | inhibition at 500 ppm (S. typhosa) [%] | MIC (S. typhosa) [µg/mL] | MIC (C. IPS) [µg/mL] | inhibition at 500 ppm (B. subtilis [5]) [%] | inhibition at 500 ppm (S. aureus [6]) [%] | inhibition at 500 ppm (C. pelliculosa [7]) [%]
1 | O=S(=O)(Br)c1ccc(Cl)s1 [5-Cl, 5-Chloro-2-thiophenesulfonyl Bromide] | 500 | 500 | 100 | 500 | 100 | 100 | 100 | 100 | 100 | 500 | 500 | 100 | 100 |  |  |  |  |  | 
2 | CCc1ccc(S(=O)(=O)Cl)s1 [5-C2 H5] |  |  |  |  |  |  |  |  |  |  |  |  |  | 50 |  |  |  |  | 
3 | O=S(=O)(Br)c1cc(Br)c(Br)s1 [4,5-Br2] | 50 (≈ 130 µM) |  | 100 (≈ 260 µM) | 50 (≈ 130 µM) | 100 (≈ 260 µM) | 100 (≈ 260 µM) | 100 (≈ 260 µM) | 100 (≈ 260 µM) |  | 50 (≈ 130 µM) | 100 (≈ 260 µM) |  | 100 (≈ 260 µM) |  | 50 (≈ 130 µM) |  |  |  | 
4 | O=S(=O)(Br)c1ccc(Br)s1 [5-Br, 5-Bromo-2-thiophenesulfonyl Bromide] | 500 | 500 | 100 | 100 | 100 | 100 | 100 | 100 | 100 | 100 | 500 | 500 | 100 |  |  |  |  |  | 
5 | CCc1ccc(S(=O)(=O)Br)s1 [5-C2 H5] | 500 (≈ 1960 µM) |  | 100 (≈ 392 µM) | 100 (≈ 392 µM) | 100 (≈ 392 µM) | 100 (≈ 392 µM) | 500 (≈ 1960 µM) | 100 (≈ 392 µM) | 100 (≈ 392 µM) | 100 (≈ 392 µM) | 500 (≈ 1960 µM) | 500 (≈ 1960 µM) | 100 (≈ 392 µM) |  |  |  |  |  | 
6 | O=S(=O)(Cl)c1sc(Br)c(Br)c1Br [3,4,5-Br3, reference compound] | > 100 |  | > 100 | > 100 |  | > 100 | > 100 |  |  |  | > 100 |  | > 100 |  |  |  |  |  | 
7 | O=S(=O)(Br)c1sc(Br)c(Br)c1Br [3,4,5-Br3] | 50 (≈ 108 µM) |  | 50 (≈ 108 µM) | 50 (≈ 108 µM) | 50 (≈ 108 µM) | 50 (≈ 108 µM) | 100 (≈ 216 µM) | 50 (≈ 108 µM) |  | 50 (≈ 108 µM) | > 100 |  | 50 (≈ 108 µM) |  |  |  |  |  | 
8 | CCCCc1ccc(S(=O)(=O)Br)s1 [5-butyl] | 500 (≈ 1770 µM) |  | 100 (≈ 353 µM) | 100 (≈ 353 µM) | 100 (≈ 353 µM) | 100 (≈ 353 µM) | 500 (≈ 1770 µM) | 100 (≈ 353 µM) | 100 (≈ 353 µM) | 500 (≈ 1770 µM) | 500 (≈ 1770 µM) | 500 (≈ 1770 µM) | 100 (≈ 353 µM) |  |  |  |  |  | 
9 | O=S(=O)(Cl)c1cc(Br)c(Br)s1 [4,5-Br2, reference compound] | > 100 |  | 100 (≈ 294 µM) | > 100 |  | 100 (≈ 294 µM) | > 100 |  |  |  | > 100 |  | > 100 |  |  |  |  |  | 
10 | O=S(=O)(Br)c1sc(Br)cc1Br [3,5-Br2] | 50 (≈ 130 µM) |  | 50 (≈ 130 µM) | 50 (≈ 130 µM) | 100 (≈ 260 µM) | 50 (≈ 130 µM) | 100 (≈ 260 µM) | 100 (≈ 260 µM) |  | 50 (≈ 130 µM) | 50 (≈ 130 µM) |  |  |  | 50 (≈ 130 µM) |  |  |  | 
11 | O=S(=O)(Br)c1cccs1 [H, 2-Thiophenesulfonyl Bromide] | 500 | 100 | 100 | 100 | 100 | 100 | 100 | 100 | 100 | 100 | 100 | 100 | 100 |  |  |  |  |  | 
12 | O=S(=O)(Cl)c1sc(Br)cc1Br [3,5-Br2, reference compound] | > 100 |  | > 100 | > 100 | > 100 | > 100 | > 100 | > 100 |  | > 100 | > 100 |  | > 100 |  | > 100 | > 100 |  |  | 
13 | CCCCc1ccc(S(=O)(=O)Cl)s1 [5-butyl, reference compound] |  |  | 500 (≈ 2090 µM) |  |  |  | > 500 | > 500 |  |  | > 500 | > 500 | > 500 |  | > 500 |  | 50 | 50 | 50
14 | Cc1ccc(S(=O)(=O)Br)s1 [5-CH3] | 100 (≈ 415 µM) |  | > 100 | > 100 | > 100 | > 100 | > 100 | > 100 |  | 50 (≈ 207 µM) | > 100 |  | > 100 |  | 50 (≈ 207 µM) | > 100 |  |  | 
15 | Cc1ccc(S(=O)(=O)Cl)s1 [5-CH3] |  |  |  |  |  |  |  |  |  |  |  |  |  | 50 |  |  |  |  | 
16 | O=S(=O)(Cl)c1cccs1 [H, 2-thiophenesulfonyl chloride, reference compound] | > 500 | 500 | > 500 | > 500 | > 500 | > 500 | > 500 | > 500 | > 500 | > 500 | > 500 | > 500 | > 500 |  | > 500 | > 500 |  |  | 
